Data published in the supplement of paper PMC10307832.

What follows are cell lines tested with Cc1nc(C(=O)NCC(=O)O)c(O)c2ccc(Oc3ccccc3)cc12 [FG-4592] + O=C(CCCCCCC(=O)Nc1ccccc1)NO [Vorinostat] (partner 1 µM) (assay: relative viability (nuclei count vs DMSO), 5 days (fraction); higher = more cells survive). Conditions: first compound 0.08 µM.
Summary of the method: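 Relative viability divides the nuclei count in treated wells by that in vehicle wells. Lung cancer cell lines were seeded in 1536-well plates, dosed by pin tool the next day, and fixed and stained after 5 days in one step with final 0.05% Triton X-100, 1% formaldehyde and 1 ug/ml Hoechst. Dosing was a single drug or a fixed anchor-drug dose plus five library-drug doses (not always all listed) in √10 steps, and values are medians of duplicate plates imaged at 4×.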

Cell Line	relative viability
NCI-H522	0.962
NCI-H727	1.07
NCI-H1650	0.762
NCI-H1993	1.06
SW 1573	0.708
NCI-H838	0.742
LCLC-103H	0.75
NCI-H520	0.693
NCI-H2126	0.709
EMC-BAC-2	0.43
NCI-H2085	0.693
HCC-366	0.263
NCI-H1666	1.02
NCI-H596	0.441
LK-2	0.299
NCI-H2087	0.695

Cell Line	relative viability
NCI-H2342	0.701
SK-MES-1	1.13
H3255	0.89
COR-L23	0.414
COR-L 105	0.723
IA-LM	0.826
LOU-NH91	0.993
ChaGo-K-1	0.694
NCI-H2170	0.825
NCI-H2405	0.767
HCC-44	1.03
NCI-H1648	0.481
NCI-H1395	0.729
NCI-H1944	0.479
ABC-1	1.14
NCI-H358	0.61

Same assay, conditions: first compound 0.253 µM

Cell Line	relative viability
NCI-H522	0.794
NCI-H727	1.17
NCI-H1650	0.53
NCI-H1993	0.69
SW 1573	0.965
NCI-H838	0.729
LCLC-103H	0.733
NCI-H520	0.709
NCI-H2126	0.726
EMC-BAC-2	0.467
NCI-H2085	0.755
HCC-366	0.269
NCI-H1666	0.932
NCI-H596	0.507
LK-2	0.245
NCI-H2087	0.453
NCI-H2342	0.721

Cell Line	relative viability
SK-MES-1	0.969
H3255	0.684
COR-L23	0.373
COR-L 105	0.755
IA-LM	0.83
LOU-NH91	0.86
ChaGo-K-1	0.819
NCI-H2170	0.747
NCI-H2405	0.906
HCC-44	1.05
SW 900	0.388
NCI-H1648	0.683
NCI-H1395	0.771
NCI-H1793	0.677
NCI-H1944	0.571
ABC-1	1.01
NCI-H358	0.567

Same assay, conditions: first compound 0.8 µM

Cell Line	relative viability
NCI-H727	1.28
NCI-H1650	0.502
SW 1573	0.604
NCI-H838	0.696
LCLC-103H	0.677
NCI-H520	0.635
NCI-H2126	0.594
NCI-H2085	0.65
HCC-366	0.185
NCI-H1666	0.954
LK-2	0.228
NCI-H2087	0.565
